Legend:
[1] = tested on: secondary biliary liver fibrosis; assay: Rat fibrosis model of bile duct occlusion (secondary biliary liver fibrosis); assay type: in vivo; details: after 5-6 weeks of bile duct occlusion, pilot experiments
Protocol: Animal experimentation: Male adult Wistar rats, average weight 206±19 g, underwent the following microsurgical procedure under an operating microscope (OPMI 6-S, Zeiss, Germany) (45-47): 1. midline abdominal incision following anesthesia with 100 mg/kg ketamine-hydrochloride (Ketanest®, Parke-Davis, Germany) and 10 mg/kg 5,6-dihydro-2-(2,6-xylidino)-4H-1,3-thiazine-hydrochloride (Rompun®, Bayer, Germany); 2. dissection of the common bile duct, insertion of a teflon catheter (Abbocath®-T 26 G, Venisystems, USA) and placement of a distal complete and a proximal incomplete ligature with 5-0 silk (Perma-hand®, Ethicon, Germany); 3. retrograde injection of sodium-amidotrizoate (Ethibloc®, Ethicon Germany) at a dose of […] body weight; 4. removal of the catheter, closure of the proximal ligature, scission of the bile duct between the ligatures and wound closure. After bile duct occlusion (BDO), animals received normal chow (Altromin®, Lage, Germany) and were allowed free access to water. […]
(§1) To investigate whether the […] integrin inhibitor had any effect on ECM expression in HSC/MF mRNA, expression of a spectrum of the major pro- and anti-fibrogenic molecules like procollagen α1(I) I, TGFβ1, TGFβ2, MMP-3, MMP-13, MMP-2, connective tissue growth factor (CTGF) and TIMP-1 was measured by Real-Time PCR. […]

CFSC-2G cells = assay: Scratch assay (cell migration), CFSC-2G cells; assay type: cell-based, rat; details: PDGF-BB 10 ng/ml, 17-20 h
Protocol: In addition the HSC cell lines CFSC-2G (moderately activated, kind gift of Dr. M. Rojkind, Washington DC, USA) were used.
(§2) Scratch assay: Cell migration was estimated by measuring the reduction of scratch area. Cells were seeded on a 24-well plate at a density of 60,000 cells/well. After reaching confluency cells were starved in serum-free medium for 24 h before making a scratch through the cell monolayer using a sterile pipet tip. After wounding cells were pre-treated by the αvβ3-integrin inhibitor at increasing concentrations (10^−10M-10^−6M) for 30 min and then treated by PDGF-BB at a concentration of 10 ng/ml in the absence of serum. The reduction of scratch area was measured at three different points per well using a special ocular with net-micrometer after […].
(§3) All experiments were performed in cell culture with the myofibroblasts-like cell line CFSC-2G (HSC cell line derived from cirrhotic rat liver) and primary rat HSC/MF. To investigate the effect of the αvβ3 integrin inhibitor on cell migration cells were seeded on 24 well plates and after reaching confluence starved in the absence of FCS for 24 h. Scratches were done and the cells treated with PDFG-BB at 10 ng/ml in the presence or absence of the αvβ3 inhibitor at 10^−6-−10^9 M. The rate of migration was measured after 17-20 h as a reduction of initial scratch width. […]

primary rat HSC/MF = assay: Scratch assay (cell migration), primary rat HSC/MF; assay type: cell-based
Protocol: Briefly, the liver was perfused in situ through the portal vein using a 16-18 G cannula with calcium-free HBSS (Gybco, UK) for S min followed by 0,1% Pronase E (Sigma) and subsequently 0.025% type IV collagenase (Sigma) in Dulbecco's modified Eagle's medium for 10-15 min each. The digested liver was excised, gently minced and incubated further with 0.04% pronase, 0,025% collagenase, 0,002% DNAse (Sigma) in Dulbecco's modified Eagle's medium, supplemented with 25 mM HEPES at 37° C. for 10-30 min with gentle agitation. After filtration through 100 μm nylon gauze, parenchymal cells were removed by low speed centrifugation. The HSC fraction was collected from the gradient interface after enrichment by a two-step centrifugation through a 11 and 13% gradient of Nycodenz (Sigma) at 1500 g for 15 min without braking, and plated at a density 0.5×10^6/cm^2 in DMEM supplemented with 10% FCS, penicillin and streptomycin. Medium was changed after 24 h, and further every 48 hours. Viability of the isolated cells was assessed by Trypan Blue exclusion and was routinely greater then 95-98%. Purity of HSC isolates was confirmed by their typical morphological appearance: lipid-droplets in the cytoplasm showing greenish autofluorescence at 390 nm excitation and star-like shape. Contamination with Kupffer cells was assessed by the ability to engulf 3 μm latex beads and was below 3-5% after isolation, and almost undetectable after the 1st passage. For experiments cells were used between the 1st and 3rd passage, if not stated otherwise.
as §2, §3

HSC/MF = assay: BrdU incorporation (cell proliferation, de novo DNA synthesis); assay type: cell-based, rat
Protocol: Briefly, the liver was perfused in situ through the portal vein using a 16-18 G cannula with calcium-free HBSS (Gybco, UK) for S min followed by 0,1% Pronase E (Sigma) and subsequently 0.025% type IV collagenase (Sigma) in Dulbecco's modified Eagle's medium for 10-15 min each. The digested liver was excised, gently minced and incubated further with 0.04% pronase, 0,025% collagenase, 0,002% DNAse (Sigma) in Dulbecco's modified Eagle's medium, supplemented with 25 mM HEPES at 37° C. for 10-30 min with gentle agitation. After filtration through 100 μm nylon gauze, parenchymal cells were removed by low speed centrifugation. […] Viability of the isolated cells was assessed by Trypan Blue exclusion and was routinely greater then 95-98%. […] Contamination with Kupffer cells was assessed by the ability to engulf 3 μm latex beads and was below 3-5% after isolation, and almost undetectable after the 1st passage. […]
BrdU incorporation: To assess cell proliferation de novo DNA synthesis was determined as BrdU incorporation. […] During last […] of incubation cells were pulse-labeled with BrdU and its incorporation measured using an ELISA kit (Roche) and a micro-plate reader. […]

CTGF = assay: Real-Time PCR of CTGF expression in CFSC-2G cells; assay type: cell-based, rat; details: PDGF-BB 10 ng/ml 24 h, inhibitor 10^−6-10^−8 M, dose-dependent, maximum of inhibition at 10^−6 M
Protocol: (§4) Real-Time PCR Total RNA was isolated from the cell lysates using the RNApure commercial kit (PeqLab, Erlangen, Germany) according to the manufacturer's recommendations. Template cDNA was obtained by reverse transcription of […] of total RNA.
(§5) Relative transcript levels were quantified by real time RT-PCR using the LightCycler system (Roche), using 1,5 μl of template cDNA dilution in a total reaction volume of 15 μl that included Taq DNA-Polymerase, dNTP-mix, reaction buffer, and 3.0 mM MgCl2 provided by the “LightCycler FastStart DNA Master Hybridization Probes Kit” (Roche Molecular Biochemicals, Mannheim, Germany) according to the manufactor's instructions. For every measured transcript a 1:2 to 1:32 dilution series of one sample was used as standard. Data were analyzed with the LightCycler software using the “proportional second derivative maximum” option. The housekeeping genes beta-2 microglobulin or GAPDH were amplified in a parallel reaction for normalization of the results. […]
as §1

[2] = tested on: procollagen α1(I), TGFβ1, TGFβ2, MMP-3, MMP-13, MMP-2, TIMP-1; assay: Real-Time PCR of other pro- and anti-fibrogenic molecules in HSC/MF; assay type: cell-based, rat; details: PDGF-BB 10 ng/ml 24 h; data not shown
Protocol: as §4, §5, §1

Row | Structure (SMILES) | reduction of total liver collagen [1] | PDGF-BB induced cell migration into the scratch area (CFSC-2G cells; inhibitor 10^-9-10^-6 M, dose-dependent) | PDGF-BB induced cell migration at 10^−6 M (CFSC-2G cells; inhibitor 10^−6 M) | inhibition of migration at reduced concentrations of FCS (primary rat HSC/MF; FCS 0,25%, data not shown) | cell migration stimulated by FCS (primary rat HSC/MF; HSC/MF, FCS-stimulated, inhibitor 10^−10-10^−6 M, 20 h) | PDGF-BB induced cell migration into the scratch area (primary rat HSC/MF; primary rat HSC/MF, PDGF-BB 10 ng/ml, inhibitor 10^-9-10^-6 M, 17-20 h, dose-dependent) | PDGF-BB induced cell migration at 10^−6 M (primary rat HSC/MF; primary rat HSC/MF, PDGF-BB 10 ng/ml, inhibitor 10^−6 M, 17-20 h) | serum-stimulated cell proliferation (HSC/MF; 10% FCS, inhibitor 10^−6-10^−8 M) | PDGF-BB stimulated cell proliferation (HSC/MF; all cell types, PDGF-BB 10 ng/ml, inhibitor 10^−8-10^−6 M, 24 h) | CTGF expression (CTGF) | transcripts levels of other ECM molecules [2]
1 | O=C(O)CC(NC(=O)C(COCc1ccccc1)NC(=O)CCCCNc1ccccn1)c1cc(Cl)cc(Cl)c1 (centres unmarked) [EMD 409849, 3-{3-Benzyloxy-2-[5-(pyridin-2-ylamino)-pentanoylamino]-propanoylamino}-3-(3,5-dichloro-phenyl)-propionic acid] | 50-70% |  |  |  |  |  |  |  |  |  | 
2 | CNc1cccc(CCOc2ccc3c(C(CC(=O)O)c4ccc5nsnc5c4)c[nH]c3c2)n1 (centres unmarked) [EMD 409915, 3-Benzo[1,2,5]thiadiazol-5-yl-3-{6-[2-(6-methylamino-pyridin-2-yl)-ethoxy]-1H-indol-3-yl}-propionic acid] |  | strongly inhibited | Complete abrogation | did not show any significant inhibition | no effect | strongly inhibited | Complete abrogation | absence of effect | did not have any effect | downregulated | no change

From patent publication US20070117849A1, “Alfavbeta3 and alfavbet6 integrin antagonists as antifibrotic agents” (priority 2003, published 2007)
